According to US20250002471A1 (Gilead Sciences, Inc., priority 2020, published 2025):

Key:
TLR7 = target: T1, TLR7 (Homo sapiens, UniProt Q9NYK1); experiment: Human PBMC cell-based assay, TLR7 agonist GS-986 stimulation, cytokine (IL-6 and IFNα) readout; details: human PBMCs, GS-986 400 nM, 6 hours; Table 26; read-out: TLR-7 EC50
T1 construct: lymphocytes, monocytes and dendritic cells that express TLR7, TLR8 and TLR9; endogenous in cells; host or cells: human PBMCs from healthy donors
T1 sequence (Q9NYK1 27-1049): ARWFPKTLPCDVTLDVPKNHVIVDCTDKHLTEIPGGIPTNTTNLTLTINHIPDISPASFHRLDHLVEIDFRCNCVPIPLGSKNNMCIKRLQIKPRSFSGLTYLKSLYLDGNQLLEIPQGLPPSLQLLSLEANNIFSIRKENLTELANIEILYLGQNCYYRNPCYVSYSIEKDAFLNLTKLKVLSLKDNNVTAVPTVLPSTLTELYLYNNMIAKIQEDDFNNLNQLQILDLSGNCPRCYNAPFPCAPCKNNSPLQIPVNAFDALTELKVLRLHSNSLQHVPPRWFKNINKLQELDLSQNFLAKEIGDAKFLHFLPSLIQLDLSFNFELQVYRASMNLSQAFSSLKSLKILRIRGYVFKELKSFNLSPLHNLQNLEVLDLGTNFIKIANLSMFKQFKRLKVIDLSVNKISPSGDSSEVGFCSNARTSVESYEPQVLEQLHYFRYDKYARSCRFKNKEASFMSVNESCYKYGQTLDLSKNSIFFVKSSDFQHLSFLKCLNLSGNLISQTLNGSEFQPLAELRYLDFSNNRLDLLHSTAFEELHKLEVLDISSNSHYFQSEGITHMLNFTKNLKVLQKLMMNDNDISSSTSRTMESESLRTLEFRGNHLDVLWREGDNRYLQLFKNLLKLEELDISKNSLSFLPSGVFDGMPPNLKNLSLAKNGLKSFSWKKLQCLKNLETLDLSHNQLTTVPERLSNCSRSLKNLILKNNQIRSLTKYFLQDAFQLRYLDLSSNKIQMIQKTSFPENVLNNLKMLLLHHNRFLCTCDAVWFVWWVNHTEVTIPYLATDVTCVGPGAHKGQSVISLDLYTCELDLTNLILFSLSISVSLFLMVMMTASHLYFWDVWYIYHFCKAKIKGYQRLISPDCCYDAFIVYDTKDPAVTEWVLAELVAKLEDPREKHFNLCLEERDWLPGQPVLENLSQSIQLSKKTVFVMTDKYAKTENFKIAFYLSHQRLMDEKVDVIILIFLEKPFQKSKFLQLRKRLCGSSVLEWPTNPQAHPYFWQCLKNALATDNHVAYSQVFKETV
Procedure, shortened: (§1)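 Cryopreserved healthy-donor PBMCs (100,000 cells/well, RPMI-1640 + 10% FBS) preincubated 1 h at 37 °C with antagonist (10-point dose response), then stimulated 6 h with GS-986 (400 nM final, TLR7) or ODN-2216 (3 μM final, TLR9). Supernatant IL-6 and IFNα measured by electrochemiluminescence immunoassay; EC50 from sigmoidal fit.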

TLR9 = target: T2, TLR9 (Homo sapiens, UniProt Q9NR96); experiment: Human PBMC cell-based assay, TLR9 agonist ODN-2216 stimulation, cytokine (IL-6 and IFNα) readout; details: human PBMCs, ODN-2216 3 μM, 6 hours; Table 26; read-out: TLR-9 EC50
T2 construct: lymphocytes, monocytes and dendritic cells that express TLR7, TLR8 and TLR9; endogenous in cells; host or cells: human PBMCs from healthy donors
T2 sequence (Q9NR96 26-1032): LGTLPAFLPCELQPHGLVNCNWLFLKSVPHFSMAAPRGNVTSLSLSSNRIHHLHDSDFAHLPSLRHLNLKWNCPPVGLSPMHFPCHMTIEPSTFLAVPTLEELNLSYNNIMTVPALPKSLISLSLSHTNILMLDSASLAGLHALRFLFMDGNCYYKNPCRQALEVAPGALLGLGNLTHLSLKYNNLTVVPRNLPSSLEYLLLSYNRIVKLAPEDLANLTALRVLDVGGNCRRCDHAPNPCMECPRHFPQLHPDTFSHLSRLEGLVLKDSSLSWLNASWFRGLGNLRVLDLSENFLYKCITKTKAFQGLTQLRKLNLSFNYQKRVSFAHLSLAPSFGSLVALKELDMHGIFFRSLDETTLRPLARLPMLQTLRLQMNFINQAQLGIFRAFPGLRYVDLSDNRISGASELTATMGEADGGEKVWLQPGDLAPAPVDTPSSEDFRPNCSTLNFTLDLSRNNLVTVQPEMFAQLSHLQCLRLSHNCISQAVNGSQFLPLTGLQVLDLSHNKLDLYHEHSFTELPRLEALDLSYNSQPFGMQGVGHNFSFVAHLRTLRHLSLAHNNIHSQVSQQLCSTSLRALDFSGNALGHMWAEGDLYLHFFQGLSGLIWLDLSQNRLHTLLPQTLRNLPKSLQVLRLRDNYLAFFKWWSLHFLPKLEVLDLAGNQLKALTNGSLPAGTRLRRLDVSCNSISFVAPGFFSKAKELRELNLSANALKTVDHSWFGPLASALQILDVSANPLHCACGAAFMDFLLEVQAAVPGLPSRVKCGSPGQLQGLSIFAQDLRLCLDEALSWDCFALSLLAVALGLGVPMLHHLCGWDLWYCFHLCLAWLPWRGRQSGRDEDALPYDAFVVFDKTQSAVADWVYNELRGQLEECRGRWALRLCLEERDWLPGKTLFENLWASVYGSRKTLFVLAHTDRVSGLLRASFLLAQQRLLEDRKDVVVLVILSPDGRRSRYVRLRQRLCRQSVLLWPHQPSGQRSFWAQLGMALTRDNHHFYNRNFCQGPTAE
Procedure, shortened: as §1

Row | Structure (SMILES) | EC50 (TLR7) | EC50 (TLR9)
1 | Cc1cc(-c2[nH]c3cc(-c4cnn5c4CNCC5)ccc3c2C)cc(C)n1 [Example 10] | 210 nM | 392 nM
2 | Cc1cc(-c2[nH]c3cc(-c4ccc(N5CCC(N)CC5)nc4)ccc3c2C2CC2)cc(C)n1 [Example 104, 1-(5-(3-cyclopropyl-2-(2,6-dimethylpyridin-4-yl)-1H-indol-6-yl)pyridin-2-yl)piperidin-4-amine] | 8.3 nM | 44.1 nM
3 | Cc1cc(-c2[nH]c3cc(-c4cccc(S(=O)(=O)N5CCNCC5)c4)ccc3c2C)cc(C)n1 [Example 69] | 209 nM | 38.4 nM
4 | Cc1cc(-c2[nH]c3cc(-c4ccc(N5CCN(C(=O)CN(C)C)CC5)nc4)ccc3c2C)cc(C)n1 [Example 106, 2-(dimethylamino)-1-(4-(5-(2-(2,6-dimethylpyridin-4-yl)-3-methyl-1H-indol-6-yl)pyridin-2-yl)piperazin-1-yl)ethan-1-one] | 39.8 nM | 18.2 nM
5 | Cc1cc(-c2[nH]c3cc(-c4ccc(C5CCN(CCO)CC5)nc4)ccc3c2C)cc(C)n1 [Example 163] | 24.2 nM | 47.1 nM
6 | Cc1cc(-c2[nH]c3cc(C(=O)N[C@H]4CCCNC4)ccc3c2C)cc(C)n1 [Example 179] | 334 nM | 211 nM
7 | Cc1cc(-c2[nH]c3cc(-c4ccc(C(=O)N5CCNCC5)cc4)ccc3c2C)cc(C)n1 [Example 8] | 84.3 nM | 84.4 nM
8 | Cc1c(-c2cnn3c2CCC3)[nH]c2cc(-c3ccc(N4CCNCC4)nc3)ccc12 [Example 89] | > 1000 nM | 428 nM
9 | Cc1cc(-c2[nH]c3cc(-c4ccc(N5CCN(CC(=O)N(C)C)CC5)nc4)ccc3c2C)cc(C)n1 [Example 116] | 140 nM | 67.9 nM
10 | Cc1cc(-c2[nH]c3cc(-c4ccc(N5CCN(C(=O)[C@H]6CCCN6)CC5)nc4)ccc3c2C)cc(C)n1 [Example 134, (R)-2-(2,6-dimethylpyridin-4-yl)-3-methyl-6-(6-(4-prolylpiperazin-1-yl)pyridin-3-yl)-1H-indole] | 41.9 nM | 58.9 nM
11 | Cc1cc(-c2[nH]c3cc(-c4cnc5c(c4)ncn5C)ccc3c2C)cc(C)n1 [Example 46] | 183 nM | 1070 nM
12 | COc1cc(-c2[nH]c3cc(-c4ccc(N5CCNCC5)nc4)ccc3c2C)cc(C)n1 [Example 79] | 10.9 nM | 994 nM
13 | Cc1cc(-c2[nH]c3cc(-c4ccc(C5=CCCNC5)nc4)ccc3c2C)cc(C)n1 [Example 162] | 9.1 nM | 30 nM
14 | Cc1cc(-c2[nH]c3cc(-c4ccc(N5CCNCC5)cc4)ccc3c2C)cc(C)n1 [Example 66] | 83.2 nM | 51.2 nM
15 | Cc1cc(-c2[nH]c3cc(-c4ccc(N5CCNCC5)nc4)ccc3c2C)cn(C)c1=O [Example 94, 1,3-dimethyl-5-(3-methyl-6-(6-(piperazin-1-yl)pyridin-3-yl)-1H-indol-2-yl)pyridin-2(1H)-one] | 4.5 nM | 139 nM
16 | Cc1cc(-c2[nH]c3cc(-c4ccc(N5CC[C@@H](N)C5)nc4)ccc3c2C2CC2)cc(C)n1 [Example 105] | 0.9 nM | 31.2 nM
17 | Cc1cc(-c2[nH]c3cc(-c4ccc(N5CCNCC5)nc4)ccc3c2C)nc(C)n1 [Example 96] | 144 nM | 609 nM

Row | Structure (SMILES) | EC50 (TLR7) | EC50 (TLR9)
18 | Cc1cc(-c2[nH]c3cc(-c4ccc(N5CCN(CC(C)O)CC5)nc4)ccc3c2C)cc(C)n1 (stereo not drawn) [Example 118] | 5.8 nM | 58.7 nM
19 | Cc1cc(-c2[nH]c3cc(-c4ccc(N5CCNCC5)nc4)ccc3c2C#N)cc(C)n1 [Example 101, 2-(2,6-dimethylpyridin-4-yl)-6-(6-(piperazin-1-yl)pyridin-3-yl)-1H-indole-3-carbonitrile] | 1720 nM | 316 nM
20 | Cc1cc(-c2[nH]c3cc(-c4ccc5c(c4)CNCC5)ccc3c2C)cc(C)n1 [Example 14] | 213 nM | 108 nM
21 | Cc1cc(-c2[nH]c3cc(-c4ccc(N5CCN(CCO)C(=O)C5)nc4)ccc3c2C)cc(C)n1 [Example 39] | 26.4 nM | 310 nM
22 | Cc1cc(-c2[nH]c3cc(-c4ccc(N5CCC[C@H](N)C5)nc4)ccc3c2C)cc(C)n1 [Example 26] | 31 nM | 40.2 nM
23 | CC(=O)c1c(-c2cc(C)nc(C)c2)[nH]c2cc(-c3ccc(N4CCNCC4)nc3)ccc12 [Example 102, 1-(2-(2,6-dimethylpyridin-4-yl)-6-(6-(piperazin-1-yl)pyridin-3-yl)-1H-indol-3-yl)ethan-1-one] | 1730 nM | 217 nM
24 | Cc1cc(-c2[nH]c3cc(-c4ccc(C(=O)N5CC6CNCC6C5)cc4)ccc3c2C)cc(C)n1 (stereo not drawn) [Example 126] | 48 nM | 294 nM
25 | Cc1cc(-c2[nH]c3cc(-c4ccc5c(c4)ncn5C4CCNCC4)ccc3c2C)cc(C)n1 [Example 148, 5-[2-(2,6-dimethyl-4-pyridyl)-3-methyl-1H-indol-6-yl]-1-(4-piperidyl)benzimidazole] | 11.8 nM | 142 nM
26 | Cc1c(-c2ccc(C#N)c3ncccc23)[nH]c2cc(-c3ccc(N4CCNCC4)nc3)ccc12 [Example 97] | 2.6 nM | 733 nM
27 | Cc1cc(-c2[nH]c3cc(-c4cnn(C5CCNCC5)c4)ccc3c2C)cc(C)n1 [Example 6] | 15.8 nM | 84.5 nM
28 | Cc1cc(-c2[nH]c3cc(-c4ccc(N5CCNCC5)nc4)ccc3c2C)ccn1 [Example 73, 3-methyl-2-(2-methylpyridin-4-yl)-6-(6-(piperazin-1-yl)pyridin-3-yl)-1H-indole] | 33.3 nM | 102 nM
29 | CC(=O)N1CCN(c2ccc(-c3ccc4c(C)c(-c5cc(C)nc(C)c5)[nH]c4c3)cn2)CC1 [Example 107] | 224 nM | 717 nM
30 | Cc1cc(-c2[nH]c3cc(-c4cccc5c4CCNC5)ccc3c2C)cc(C)n1 [Example 62, 5-(2-(2,6-dimethylpyridin-4-yl)-3-methyl-1H-indol-6-yl)-1,2,3,4-tetrahydroisoquinoline] | 607 nM | 180 nM
31 | Cc1cc(-c2[nH]c3cc(-c4ccc(N5CCNCC5)nc4)ccc3c2C)c2cccnc2n1 [Example 99] | 1.8 nM | 548 nM
32 | Cc1cc(-c2[nH]c3cc(-c4ccc(N5CC[C@@H](NCCO)C5)nc4)ccc3c2C)cc(C)n1 [Example 130, (R)-2-((1-(5-(2-(2,6-dimethylpyridin-4-yl)-3-methyl-1H-indol-6-yl)pyridin-2-yl)pyrrolidin-3-yl)amino)ethan-1-ol] | 16.3 nM | 18.2 nM
33 | Cc1cc(-c2[nH]c3cc(-c4ccc5c(n4)CCNC5)ccc3c2C)cc(C)n1 [Example 182] | 59.6 nM | 47.1 nM
